Laboratory results published in the supplement of paper PMC10307832.

Tests used:
Assay in all cases: relative viability (nuclei count vs DMSO), 5 days (fraction); higher = more cells survive
[1] = compound: CN1C=C(C2=CC=CC=C21)/C=C\3/C4=C(C=CC=N4)NC3=O + CS(=O)(=O)CCNCc1ccc(-c2ccc3ncnc(Nc4ccc(OCc5cccc(F)c5)c(Cl)c4)c3c2)o1 [Lapatinib] (partner 2 µM)
Outline: (§1)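 Relative viability divides the nuclei count in treated wells by that in vehicle wells. Lung cancer cell lines were seeded in 1536-well plates, dosed by pin tool the next day, and fixed and stained after 5 days in one step with final 0.05% Triton X-100, 1% formaldehyde and 1 ug/ml Hoechst. Dosing was a single drug or a fixed anchor-drug dose plus five library-drug doses (not always all listed) in √10 steps, and values are medians of duplicate plates imaged at 4×.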

[2] = compound: CN1C=C(C2=CC=CC=C21)/C=C\3/C4=C(C=CC=N4)NC3=O + O=C(CCCCCCC(=O)Nc1ccccc1)NO [Vorinostat] (partner 1 µM)
Outline: as §1

Trametinib + Vorinostat = compound: CC(=O)Nc1cccc(-n2c(=O)n(C3CC3)c(=O)c3c(Nc4ccc(I)cc4F)n(C)c(=O)c(C)c32)c1 [Trametinib] + O=C(CCCCCCC(=O)Nc1ccccc1)NO [Vorinostat] (partner 1 µM)
Outline: as §1

[3] = compound: CN1C=C(C2=CC=CC=C21)/C=C\3/C4=C(C=CC=N4)NC3=O + Cc1nc(Nc2ncc(C(=O)Nc3c(C)cccc3Cl)s2)cc(N2CCN(CCO)CC2)n1 [Dasatinib] (partner 0.075 µM)
Outline: as §1

Cell Line	relative viability ([1]; first compound 0.02 µM)	relative viability ([1]; first compound 0.06325 µM)	relative viability ([1]; first compound 0.2 µM)	relative viability ([1]; first compound 0.6325 µM)	relative viability ([1]; first compound 2 µM)	relative viability ([2]; first compound 0.02 µM)	relative viability ([2]; first compound 0.06325 µM)	relative viability ([2]; first compound 0.2 µM)	relative viability ([2]; first compound 0.6325 µM)	relative viability ([2]; first compound 2 µM)	relative viability (Trametinib + Vorinostat; first compound 0.0025 µM)	relative viability (Trametinib + Vorinostat; first compound 0.007906 µM)	relative viability (Trametinib + Vorinostat; first compound 0.025 µM)	relative viability (Trametinib + Vorinostat; first compound 0.07906 µM)	relative viability (Trametinib + Vorinostat; first compound 0.25 µM)	relative viability ([3]; first compound 0.02 µM)	relative viability ([3]; first compound 0.06325 µM)	relative viability ([3]; first compound 0.2 µM)	relative viability ([3]; first compound 0.6325 µM)	relative viability ([3]; first compound 2 µM)
NCI-H2126	0.678	0.796	0.671	0.748	0.674	0.876	0.719	0.744	0.748	0.802	0.701	0.514	0.353	0.6	0.446	0.548	0.534	0.547	0.545	0.432
NCI-H2170	–	0.253	0.233	0.264	0.284	0.746	0.762	0.747	0.614	0.758	0.821	0.723	–	0.73	0.803	0.442	0.581	0.525	0.468	0.597
NCI-H2228	1.24	0.88	–	1.02	0.972	0.85	0.646	0.503	0.704	0.508	0.673	0.87	0.766	0.426	0.309	0.524	0.458	–	–	0.485
NCI-H2347	0.953	1.02	0.876	0.793	0.881	0.585	0.659	0.582	0.493	0.517	0.467	0.358	0.289	0.329	0.358	–	0.296	0.222	0.302	0.938
NCI-H2405	1.03	1.02	0.749	1.06	1.03	1.16	0.913	0.754	0.98	0.73	0.985	0.853	0.649	–	0.601	0.253	0.22	0.205	0.196	0.241
NCI-H3122	0.928	0.934	0.952	1.06	1.02	0.767	1.06	0.734	1.02	1	0.978	0.678	0.204	0.361	0.518	0.722	0.756	0.753	0.844	0.835
PC-3 [JPC-3]	0.405	0.425	0.441	0.376	0.447	0.831	0.798	0.75	0.612	0.589	0.82	0.722	0.557	–	0.53	1.04	0.888	1.02	0.866	1.02
PC-14	0.262	0.289	0.256	0.275	0.315	0.759	0.583	0.728	0.674	0.744	0.781	0.599	0.535	0.438	0.0917	0.227	0.223	0.194	0.205	0.186
RERF-LC-KJ	0.984	0.813	0.821	0.7	0.752	0.787	0.668	0.72	0.604	0.598	0.549	0.621	0.6	0.569	0.472	0.898	0.878	0.737	0.68	0.679
SK-LU-1	0.662	0.788	0.854	0.886	1.2	0.67	0.764	0.729	0.727	0.831	0.753	0.748	0.657	0.52	0.381	0.118	0.129	0.175	0.191	0.154
SK-MES-1	0.451	0.427	0.447	0.454	0.428	1.07	0.995	0.864	1.07	0.984	0.994	0.894	0.744	0.511	0.337	0.271	0.322	0.279	0.305	0.353
SW 1573	1.17	0.905	0.921	1.07	1.18	0.73	0.656	0.787	0.8	0.882	0.755	0.663	0.437	0.491	0.278	0.348	0.537	0.488	0.633	0.516
